In patent publication US4297280A, “4,1-Benzoxazepines” (Shionogi & Co., Ltd., priority 1978, dated 1981):
Where a name gives a salt, the structure may show the parent alone.

What was measured:
[1] = antipentylenetetrazol test (pentylenetetrazol 125 mg/kg s.c.); assay type: in vivo; conditions: sc; SLC ddY male mouse, 20-24 g; pentylenetetrazol preliminarily administered at 125 mg/kg s.c.; read-out: ED50 anti-pentylenetetrazol test
Procedure: (§1) *^1 test animal: SLC ddY male mouse, 20-24 g of body weight
*^2 pentylenetetrazol was preliminarily administered at a dose of 125
mg per 1 kg of body weight in subcutaneous injection.

acute lethality (LD50) = conditions: in vivo; DS male mouse, 20-24 g
rotarod performance test = assay type: in vivo; conditions: SLC ddY male mouse, 20-24 g
Description: as §1

Row | Compound | ED50 [1] [mg/kg] | LD50 (acute lethality (LD50)) [mg/kg] | ED50 (rotarod performance test) [mg/kg]
1 | CCOC1(c2ccccc2Cl)OCc2nnc(CN)n2-c2ccc(Cl)cc21 (centres unmarked) [drawing 27 (OC2H5, 1/2 succinate)] | 1.14 | > 1000 | 33.5
2 | Cc1nnc2n1-c1ccc(Cl)cc1C(c1ccccc1Cl)OC2 (centres unmarked) | 0.74 | > 1000 | 30.6
3 | NCc1nnc2n1-c1ccc(Cl)cc1C(c1ccccc1Cl)OC2 (centres unmarked) [drawing 27 (H, hydrobromide)] | 2.49 | > 1000 | 24.1
4 | CN(C)C=C1N=C2COC(c3ccccc3Cl)c3cc(Cl)ccc3N2C1=O (centres unmarked) | 1.6 | > 1000 | 73.5
5 | CN1C(=O)CN=C(c2ccccc2)c2cc(Cl)ccc21 [diazepam, reference compound] | 1.2 | – | 13.4
6 | CN1CCN(C=C2N=C3COC(c4ccccc4Cl)c4cc(Cl)ccc4N3C2=O)CC1 (centres unmarked) | 3.28 | > 1000 | > 100
7 | CN1CCN=C(c2ccccc2)c2cc(Cl)ccc21 [medazepam, reference compound] | 4.76 | > 1000 | 104
8 | Cc1nnc2n(c1=O)-c1ccc(Cl)cc1C(c1ccccc1Cl)OC2 (centres unmarked) | 0.75 | > 1000 | 24.5
